Where two headings read alike, the source gives them in different places.
Target: T1, glucocorticoid receptor (Rattus norvegicus, UniProt P06536)
T1 construct: from tissue; host or cells: liver cytosol of male Sprague-Dawley rats
T1 sequence (P06536 1-795): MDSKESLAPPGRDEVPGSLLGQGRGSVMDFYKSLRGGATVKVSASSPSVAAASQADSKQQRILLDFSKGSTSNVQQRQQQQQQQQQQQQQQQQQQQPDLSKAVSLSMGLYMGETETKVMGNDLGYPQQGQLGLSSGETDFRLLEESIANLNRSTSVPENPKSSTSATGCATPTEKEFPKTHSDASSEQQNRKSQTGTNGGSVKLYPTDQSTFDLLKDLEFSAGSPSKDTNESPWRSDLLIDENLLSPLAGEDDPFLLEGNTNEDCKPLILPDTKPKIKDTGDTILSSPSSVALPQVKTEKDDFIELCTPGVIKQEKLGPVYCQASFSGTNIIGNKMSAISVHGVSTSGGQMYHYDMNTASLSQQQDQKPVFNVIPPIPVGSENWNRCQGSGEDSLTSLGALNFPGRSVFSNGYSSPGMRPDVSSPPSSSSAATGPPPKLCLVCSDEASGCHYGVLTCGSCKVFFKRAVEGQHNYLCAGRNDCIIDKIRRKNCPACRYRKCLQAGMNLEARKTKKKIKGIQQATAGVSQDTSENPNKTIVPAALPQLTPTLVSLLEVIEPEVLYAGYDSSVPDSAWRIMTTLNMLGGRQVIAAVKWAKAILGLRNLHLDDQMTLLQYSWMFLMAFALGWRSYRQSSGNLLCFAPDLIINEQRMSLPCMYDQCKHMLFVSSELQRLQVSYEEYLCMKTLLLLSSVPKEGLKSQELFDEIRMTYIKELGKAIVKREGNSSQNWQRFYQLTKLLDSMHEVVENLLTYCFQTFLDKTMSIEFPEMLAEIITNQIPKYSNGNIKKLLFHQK
Test: Glucocorticoid receptor assay: inhibition of [3H]-dexamethasone binding, liver cytosol
Conditions: for inhibition at 1 µM: read-out: % Inhibition Glucocorticold Receptor E^−6; for inhibition at 0.01 µM: read-out: % Inhibition Glucocorticold Receptor E^−8
Experimental: The manner in which the percentage of inhibition is determined is described in “Other Tests; F-Glucocorticoid Receptor Assay”.
[6,7-^3H(N)]-Dexamethasone (39 Ci/mmol) was purchased from New England Nuclear (Lachine, Québec, Canada) while unlabeled dexametasone was obtained from Steraloids (Wilton, N.H.). All other chemicals were of analytical grade.
Stock solutions of the unlabeled steroids were kept at 4° C. in ethanol. The desired steroid solutions were then prepared by appropriate dilution in buffer B (10 mM Tris-HCl, 1.5 mM EDTA, 10 mM α-monothioglycerol, pH 7.4) containing 30% ethanol.
Male Sprague-Dawley rats weighing 200-300 g were obtained from Charles-River Inc. (St-Constant, Québec, Canada). The rats were killed by cervical dislocation and the liver were rapidly removed, dissected free from adhering tissue and frozen on dry-ice. Tissues were kept at −80° C. until use.
All procedures were performed at 4° C. Tissues were eminced and homogenized in 10 vol (w/v) of buffer A (25 mM Tris-HCl, 1.5 mM EDTA, 10 mM α-monothioglycerol, 10% glycerol, 10 mM sodium molybdate, pH 7.4) using a Polytron PT-10 homogenizer (Brinkmann Instruments, Canada) at a setting of 5 for two periods of 10 sec, with intervals of 10 sec for cooling. The homogenate was then centrifuged at 105,000×g for 90 min. The supernatant was used immediately for assay.
Glucocorticoid binding was measured using the dextran-coated charcoal adsorption technique. Incubations were performed at 0-4° C. for 16-18 h using 100 μl of cytosol, 100 μl of [^3H]-Dexamethasone (5 nM final) and 100 μl of unlabeled compounds at the indicated concentrations. Each concentration was done in triplicate. Assay was ended with 300 μl of DCC (2.5% Norit A and 0.25% Dextran T-70 in Buffer B). After 10 min of incubation, tubes were centrifuged at 2,000×g for 10 min. and decanted in vials with 6 ml of BCS liquid scintillation (New England Nuclear, Dupont). The radioactivity was measured in a Beckman counter at a counting efficiency of 35%.

Structure (SMILES) | inhibition at 1 µM (Table 4′, E^−6) [%] | inhibition at 0.01 µM (Table 4′, E^−8) [%] | also measured
COCCOc1ccc2c(c1)C(=O)CC1C2CCC2(C)C1CCC21CCC(C)(C)C(=O)O1 (stereo not shown) [EM-1408-CS] | 0 | 0 | –
CC1(C)CCC2(CCC3C4CCc5c(cc(Cl)c(OS(C)(=O)=O)c5Cl)C4CCC32C)OC1=O (stereo not shown) [EM-1392-CS] | 8 | 0 | –
CC1(C)CC[C@@]2(CCC3C4CCc5cc(F)ccc5C4CC[C@@]32C)OC1=O (stereo partly shown) [EM-1157-CS] | 0 | 1 | –
CCCCN(C)C(=O)[C@@]1(OC(C)=O)CCC2C3C=C(C)C4=CC(=O)CC[C@]4(C)C3CC[C@@]21C (stereo partly shown) [EM-1165] | – | – | % Inhibition Glucocorticoid Receptor (E^−6): 26%; % Inhibition Glucocorticoid Receptor (E^−8): 0%
CC(=O)[C@@]1(OC(=O)CCCCF)CCC2C3C=C(C)C4=CC(=O)CC[C@]4(C)C3CC[C@@]21C (stereo partly shown) [EM-1195-CS] | – | – | % Inhibition Glucocorticoid Receptor (E^−6): 90%; % Inhibition Glucocorticoid Receptor (E^−8): 3%
CSCCOc1ccc2c(c1)CCC1C2CCC2(C)C1CCC21CCCC(=O)O1 [CS-242, 3-Methylthioethyloxy-1,3,5(10)-estratrien-17(R)-spiro-2′-(6′-oxo) Tetrahydropyran] | 0 | 0 | –
CC(=O)O[C@]1(C)C(=O)CCC2C3C=C(C)C4=CC(=O)C=C[C@]4(C)C3CC[C@@]21C (stereo partly shown) [CS-237] | – | – | % Inhibition Glucocorticoid Receptor E^−6 (E^−6): 69%; % Inhibition Glucocorticoid Receptor E^−8 (E^−8): 7%
CN(C)C(=O)c1ccc2c(c1)CCC1C2CCC2(C)C1CCC21CCC(C)(C)C(=O)O1 (stereo not shown) [EM-1403] | 0 | 0 | –
COCCOc1cc2c(cc1Cl)C1CCC3(C)C(CCC34CCC(C)(C)C(=O)O4)C1CC2 (stereo not shown) [EM-1371-CS] | 0 | 1 | –
COCCOc1cc2c(cc1C(F)(F)F)[C@H]1CC[C@@]3(C)[C@@H](CC[C@@]34CCC(C)(C)C(=O)O4)[C@@H]1CC2 [EM-1438, 3-(2′-Methoxyethoxy)-2-trifluoromethyl-1,3,5(10)-estratrien-17(R)-spiro-2′-(5′,5′-dimethyl-6′-oxo)tetrahydropyran] | – | – | % Inhibition Glucocorticold Receptor E^−6 (Table 4′, E^−6): 0%; % Inhibition Glucocorticold Receptor E^−8 (Table 4′, E^−8): 1%
COCCOc1cc2c(cc1C(=O)OC)C1CC[C@@]3(C)C(CC[C@@]34CCC(C)(C)C(=O)O4)C1CC2 (stereo partly drawn) [EM-1402-CS, 2-Carbomethoxy-3-(2″-methoxyethyloxy)-1,3,5(10)-estratrien 17(R)-spiro-2′-(5′,5′-dimethyl-6′-oxo)tetrahydropyran] | 7 | 4 | –
CC1(C)CCC2(CCC3C4CCc5ccccc5C4CCC32C)OC1=O (stereo not shown) [CS-224] | 5 | 1 | –
CN1C(=O)C=C[C@]2(C)C3CC[C@@]4(C)C(CC[C@@]45CCCC(=O)O5)C3CCC12 (stereo partly shown) [EM-1122-CS] | – | – | inhibition at 1 µM (Table 5 column 15, E^−6): 0%; inhibition at 0.01 µM (Table 5 column 15, E^−8): 0%
CCCC(=O)OC1(C(C)=O)CCC2C3C=C(C)C4=CC(=O)CC(C)C4(C)C3CCC21C (stereo not shown) [CS-245] | – | – | % Inhibition Glucocorticoid Receptor (E^−6): 43%; % Inhibition Glucocorticoid Receptor (E^−8): 0%
CC1(C)CCC2(CCC3C4CCc5cc(OCCN6CCCCC6)ccc5C4CCC32C)OC1=O [EM-1390-CS, 3-(N-piperidyl-ethyl)-1,3,5(10)-estratrien-17(R)-spiro-2′-(5′,5′-dimethyl-6′-oxo)-tetrahydropyran] | 0 | 2 | –
COc1ccc2c(c1)C(=O)CC1C3CCC4(CCC(C)(C)C(=O)O4)C3(C)CCC21O (stereo not shown) [EM-1386] | 0 | 3 | –
C[C@]12CCC(=O)C=C1C=C[C@@H]1[C@@H]2CC[C@]2(C)C(=O)C3(CC4CC4C3)C[C@@H]12 (stereo partly shown) [EM-1299, 4,6-Androstadien-3,17-dione-16-spirobicyclo[3′.1′.0′]-hexane] | – | – | % Inhibition Glucocorticoid Receptor E^−6 (E^−6): 0%; % Inhibition Glucocorticoid Receptor E^−8 (E^−8): 0%

From patent publication US6541463B1, “Inhibitors of type 5 and type 3 17β-hydroxysteroid dehydrogenase and methods for their use” (Endorecherche, Inc., priority 1998, dated 2003)
